Data: patent publication US7863414B2, “Methods of treatment and uses for CaMKII and its interaction with HDACs and calpain” (The Board of Regents of the University of Texas Systems, priority 2005, dated 2011)
Entries after “also recorded” stand apart in the source; their conditions may differ. Blank lines part the entries; values can stand above or below the compound they belong to.

Experiments:
[1] = test system: MEF2; assay: Reporter assay of endogenous MEF2 activity (3xMEF2-Luc) in NRVMs; assay type: cell-based, rat; details: ionomycin 0.25 μmol/l; for Effect on ionomycin-induced increase of endogenous MEF2 activity: NRVMs pretreated 30 min, Gö6976 200 nmol/l, KN93 2.5 μmol/l, KN62 5 μmol/l, CSA 1 μmol/l
Description: Endogenous MEF2 activity in NRVMs. One day after plating, a MEF2 dependent luciferase reporter (3xMEF2-Luc)56, carrying three MEF2-DNA binding sites, was transfected into NRVMs using Lipofectamine plus (Invitrogen; Carlsbad, Calif.). To control for transfection efficiency NRVMs were cotransfected with a β-galactosidase reporter plasmid (pCMV-lacZ). Twenty-four hours after transfection, NRVMs were starved for 24 h, pretreated with kinase inhibitors or cyclosporine for 30 min and stimulated with ionomycin for 24 h. Luciferase and β-galactosidase levels were quantified employing the Luciferase Assay Kit (Promega) and the FluoReporter Kit (Molecular probes), respectively.

[2] = test system: HDAC4; assay: Nuclear export of Flag-HDAC4 in cardiomyocytes (NRVMs), immunofluorescence; assay type: cell-based, rat; details: for Effect of kinase inhibitor on PE-induced nuclear export of HDAC4: adenoviral Flag-HDAC4, inhibitor pretreatment 30 min, PE 4 hrs, Stauro 500 nmol/l, KN93 5 μmol/l, KN62 10 μmol/l, AIPII-2 500 nmol/l, Bis 2.5 μmol/l, Gö6976 200 nmol/l, H89 1 μmol/l; for Nuclear export of HDAC4 induced by adrenergic agonist: Flag-HDAC4, PE or Iso 10 μmol/l, up to 4 hrs
Text: (§1) Cardiomyocyte culture and adenoviral infection. NRVMs were isolated from 1-2 day Sprague Dawley rats. For adenovirus production, cDNAs encoding FLAG-tagged HDAC4 wild-type or a mutant containing alanines in place of serines 246, 467 and 632 (S/A) were subcloned into the pACCMV vector and co-transfected with pJM17 into 293 cells. Primary lysates were used to re-infect 293 cells and viral plaques were obtained using the agar overlay method. The production of adenoviral GFP-HDAC5 was described previously 18. NRVMs were infected 24 h after plating, starved for 4 h, and stimulated with PE or Iso for the indicated time period. In experiments with kinase inhibitors, NRVMs were pretreated with the inhibitor 30 min prior stimulation. For assessing cardiomyocyte hypertrophy, NRVMs were starved for 24 h and stimulated with PE for another 24 hrs. Subcellular localization of Flag-HDAC4 and cardiomyocyte hypertrophy, as assessed by sarcomeric organization, was determined by indirect immunofluorescence.
(§2) Indirect Immunofluorescence. COS cells were grown on glass coverslips, fixed in paraformaldehyde (4%), permeabilized in 0.1% Triton-X-100 and blocked in PBS containing goat serum (5%). Primary antibodies against FLAG (monoclonal or rabbit; Sigma), Myc (polyclonal, A-14; Santa Cruz), or HA (polyclonal, Y-11; Santa Cruz) were used at a dilution of 1:200. Secondary antibodies conjugated to either fluoresceine or Texas Red (Vector Laboratories) were also used at a dilution of 1:200. Staining of NRVMs for sarcomeres was performed with an antibody directed against sarcomeric α-actinin (Sigma). All images were captured at a magnification of ×40.

[3] = test system: HDAC5; assay: Nuclear export of GFP-HDAC5 in cardiomyocytes (NRVMs); assay type: cell-based, rat; details: PE 4 hrs
Text: as §1
Indirect Immunofluorescence. COS cells were grown on glass coverslips, fixed in paraformaldehyde (4%), permeabilized in 0.1% Triton-X-100 and blocked in PBS containing goat serum (5%). Primary antibodies against FLAG (monoclonal or rabbit; Sigma), Myc (polyclonal, A-14; Santa Cruz), or HA (polyclonal, Y-11; Santa Cruz) were used at a dilution of 1:200. […]

[4] = test system: neonatal rat ventricular myocytes (NRVMs); assay: Cardiomyocyte hypertrophy in NRVMs; assay type: cell-based; details: data not shown
Text: as §1

[5] = test system: HDAC4-GFP; assay: Cellomics high content assay, nuclear localization of HDAC4-GFP in COS cells transfected with activated CaMKII; assay type: cell-based; details: COS cells transfected with HDAC4-GFP and CaMKII; concentration range; fixed at 48 hrs; EC50 only in FIG. 12
Description: The plates are incubated at room temperature for 60 minutes.

[6] = test system: HDAC4; assay: Subcellular localization of HDAC4 in Cos cells with active CaMKIIδB mutants, leptomycin B treatment; assay type: cell-based; details: 12 hours
Description: as §2, with “Cell culture and transfection assays. COS cells were maintained in DMEM with fetal bovine serum (10%), L-glutamine (2 mM), and penicillin-streptomycin. Transfection of COS cells was performed with Fugene 6 (Roche Molecular Biochemicals) according to manufacturer's instructions. Indirect” for “Indirect”

Effect of kinase inhibitor on PE-induced nuclear export of HDAC4 [2]: did not affect
Compound: Cn1c2ccccc2c2c3c(c4c5ccccc5n(CCC#N)c4c21)C(=O)NC3 [Gö6976]
Effect on ionomycin-induced increase of endogenous MEF2 activity [1]: did not affect

Effect of kinase inhibitor on PE-induced nuclear export of HDAC4 [2]: did not affect
Compound: O=S(=O)(NCCNC/C=C/c1ccc(Br)cc1)c1cccc2cnccc12 [H89]

Compound: C[C@H](CCC(=O)O)C[C@H](C)C[C@H](C)C(=O)/C=C(\O)[C@H](C)C[C@H](C)C/C=C/[C@@H](C)[C@@H](O)[C@@H](C)[C@@H](O)C[C@@H]1CC[C@@](C)([C@H]2CC[C@@](C)([C@@H](C)O)O2)O1 [Ionomycin, ionomycin]
Endogenous MEF2 activity (3xMEF2-Luc) after stimulation ([1]; NRVMs): doubled

Compound: CN([C@@H](Cc1ccc(OS(=O)(=O)c2cccc3cnccc23)cc1)C(=O)N1CCN(c2ccccc2)CC1)S(=O)(=O)c1cccc2cnccc12 [KN62]
Effect on ionomycin-induced increase of endogenous MEF2 activity [1]: blocked
Effect of kinase inhibitor on PE-induced nuclear export of HDAC4 [2]: markedly reduced; also recorded: effective in blocking

Compound: COc1ccc(S(=O)(=O)N(CCO)c2ccccc2CN(C)C/C=C/c2ccc(Cl)cc2)cc1 [KN93]
Effect on ionomycin-induced increase of endogenous MEF2 activity [1]: blocked
Effect of kinase inhibitor on PE-induced nuclear export of HDAC4 [2]: markedly reduced; also recorded: effective in blocking
Effect on PE-induced nuclear export of HDAC5 ([3]; KN93 5 μmol/l pretreatment): not affected; also recorded: not blocked

Compound: CN(C)CCCn1cc(C2=C(c3c[nH]c4ccccc34)C(=O)NC2=O)c2ccccc21 [bisindolylmaleimide I]
Effect of kinase inhibitor on PE-induced nuclear export of HDAC4 [2]: did not affect

Compound: CC(C)NCC(O)c1ccc(O)c(O)c1 (centres unmarked) [isoprenaline]
Nuclear export of HDAC4 induced by adrenergic agonist [2]: time-dependent nuclear export
Nuclear export of HDAC4 induced by adrenergic agonist ([2]; listed as Iso): time-dependently induced nuclear export
Hypertrophic growth response [4]: evoked a hypertrophic growth response

Compound: CCC(=C/[C@H](C)C/C=C/C(C)=C/[C@@H](C)C(=O)[C@@H](C)[C@H](O)[C@@H](C)C/C(C)=C/C(=O)O)/C=C/[C@@H]1OC(=O)C=C[C@@H]1C [leptomycin B]
Dose response of HDAC4-GFP nuclear localization (Nuc-Cyto) [5]: smooth dose response curves
Nuclear accumulation of HDAC4 after leptomycin B ([6]; absence or presence of constitutive nuclear active CaMKIIδb T287D/S332A): completely accumulated in the nucleus; also recorded: accumulates in the nucleus
Nuclear accumulation of HDAC4 after leptomycin B ([6]; presence of cytosolic active CaMKIIδb T287D/K328N/K329N or CaMKIIδb T287D): no accumulation

Compound: CNC[C@H](O)c1cccc(O)c1 [phenylephrine]
Nuclear export of HDAC4 induced by adrenergic agonist [2]: time-dependent nuclear export
Nuclear export of HDAC4 induced by adrenergic agonist ([2]; listed as PE): time-dependently induced nuclear export
Hypertrophic growth response [4]: evoked a hypertrophic growth response
Nuclear export of HDAC5 in response to agonist [3]: exported

Compound: CN[C@@H]1C[C@H]2O[C@@](C)([C@@H]1OC)n1c3ccccc3c3c4c(c5c6ccccc6n2c5c31)C(=O)NC4 [staurosporine]
Dose response of HDAC4-GFP nuclear localization (Nuc-Cyto) [5]: smooth dose response curves

Effect of kinase inhibitor on PE-induced nuclear export of HDAC4 [2]: effective in blocking
Effect of kinase inhibitor on PE-induced nuclear export of HDAC4 ([2]; listed as AIPII): markedly reduced
Compound: autoctamide-2 related inhibitory peptide II [AIPII-2]
